Reference: patent publication US20230227499A1, “PRODRUGS OF MITOCHONDRIA-TARGETING OLIGOPEPTIDES” (Stealth Biotherapeutics Inc., priority 2020, published 2023)
Entries after “also recorded” stand apart in the source; their conditions may differ.

Assays:
[1] = tested on: isolated perfused guinea pig heart; experiment: Ischemia-reperfusion-induced myocardial stunning in isolated perfused guinea pig heart (Langendorff); conditions: for myocardial contractile force during ischemia-reperfusion / tolerance of ischemia versus buffer-treated hearts: SS-02 100 nM or SS-31 1 nM perfused 30 min; for myocardial contractile force during ischemia-reperfusion: 30-min global ischemia, then reperfusion (FIG. 2)
Protocol: Guinea pig hearts were rapidly isolated, and the aorta was cannulated in situ and perfused in a retrograde fashion with an oxygenated Krebs-Henseleit solution (pH 7.4) at 34° C. The heart was then excised, mounted on a modified Langendorff perfusion apparatus, and perfused at constant pressure (40 cm H20). Contractile force was measured with a small hook inserted into the apex of the left ventricle and the silk ligature tightly connected to a force-displacement transducer. Coronary flow was measured by timed collection of pulmonary artery effluent.
Hearts were perfused with buffer, 2′,6′-Dmt-D-Arg-PheLys-NH2 (SS-02) (100 nM) or D-Arg-Dmt-Lys-Phe-NH2 (SS-31) (1 nM) for 30 min and then subjected to 30 min of global ischemia Reperfusion was carried out with the same solution used prior to ischemia.

isolated mitochondria = experiment: Mitochondrial permeability transition (MPT) induced by Ca2+ in isolated mitochondria; conditions: pretreatment of isolated mitochondria with SS-31 10 μM (FIG. 1A)
Protocol: (§1) FIGS. 1A-1C depict that D-Arg-Dmt-Lys-Phe-NH2 (SS-31; MTP-131) inhibits mitochondrial swelling and cytochrome c release. […] Gray line, buffer; red line, SS-31. […] Swelling was measured by light scattering measured at 570 nm. FIG. 1 C depicts the comparison of SS-02 and SS-31 with cyclosporine (CsA) in inhibiting mitochondrial swelling and cytochrome c release induced by Ca2+. The amount of cytochrome c released was expressed as percent of total cytochrome c in mitochondria. Data are presented as mean±s.e., n=3.
(§2) MPT pore opening results in mitochondrial swelling. We examined the effects of (SS-31) on mitochondrial swelling, which was measured using light scattering monitored at 570 nm.

mitochondria [2] = experiment: Mitochondrial swelling induced by Ca2+, light scattering at 570 nm; conditions: pretreatment with SS-31 50 μM, light scattering at 570 nm (FIG. 1B)
Protocol: as §1, §2

mitochondria [3] = experiment: Cytochrome c release from mitochondria induced by Ca2+; conditions: FIG. 1C
Protocol: as §1, §2

[4] = 30 min global ischemia, then reperfusion

Row | Compound | myocardial contractile force during ischemia-reperfusion [1] | tolerance of ischemia versus buffer-treated hearts [1, 4] | onset of MPT induced by Ca2+ (isolated mitochondria) | mitochondrial swelling induced by Ca2+ (mitochondria [2]) | cytochrome c release induced by Ca2+ (mitochondria [3]) | inhibition of cardiac stunning ([1]; SS-31 1 nM, 30 min global ischemia, then reperfusion) | heart rate ([1]; SS-31 1 nM, ischemia-reperfusion) | coronary flow during reperfusion ([1]; SS-31 1 nM, timed collection of pulmonary artery effluent)
1 | 2′,6′-Dmt-D-Arg-PheLys-NH2 [SS-02] | protects myocardial contractile force | tolerated ischemia much better than buffer-treated hearts | – | – | – | – | – | –
2 | Cc1cc(O)cc(C)c1C[C@H](CC(=O)[C@H](N)CCCNC(=N)N)C(=O)N[C@@H](CCCCN)C(=O)N[C@@H](Cc1ccccc1)C(N)=O [SS-31, D-Arg-Dmt-Lys-Phe-NH2] | protects myocardial contractile force | tolerated ischemia much better than buffer-treated hearts | has the same ability to protect against MPT; also recorded: prevents onset of MPT | has the same ability to protect against; also recorded: inhibited mitochondrial swelling | has the same ability to protect against | complete inhibition of cardiac stunning | no decrease in heart rate | well-sustained throughout reperfusion
